From the NIST ThermoML archive (doi:10.1016/j.jct.2006.05.004)

Experiments:
[1] = xn = mol fraction of the nth substance listed; conditions: 298.15 K, 101 kPa, Liquid
[2] = excess molar enthalpy (molar enthalpy of mixing); xn = mol fraction of the nth substance listed; conditions: 298.15 K, 101 kPa, Liquid

BrCCCBr [1,3-dibromopropane] + CCCCC(=O)OC
Conditions	excess molar enthalpy [kcal/mol]	mass density [kg/m3]
[1], x2 = 0.0534	–	1896.4
[1], x2 = 0.0937	–	1841.97
[1], x2 = 0.1477	–	1771.31
[1], x2 = 0.188	–	1720.07
[1], x2 = 0.2439	–	1650.83
[1], x2 = 0.2975	–	1586.35
[1], x2 = 0.3439	–	1532.03
[1], x2 = 0.4116	–	1455.16
[1], x2 = 0.4656	–	1395.81
[1], x2 = 0.5216	–	1335.88
[1], x2 = 0.5922	–	1262.69
[1], x2 = 0.6481	–	1206.41
[1], x2 = 0.7047	–	1151.1
[1], x2 = 0.7835	–	1076.35
[1], x2 = 0.8493	–	1016.07
[1], x2 = 0.9201	–	953.2
[2], x2 = 0.0492	0.00571	–
[2], x2 = 0.1163	0.00925	–
[2], x2 = 0.1938	0.00973	–
[2], x2 = 0.2736	0.00767	–
[2], x2 = 0.338	0.00421	–
[2], x2 = 0.41	-0.00237	–
[2], x2 = 0.4582	-0.00743	–
[2], x2 = 0.4998	-0.0112	–
[2], x2 = 0.5481	-0.0146	–
[2], x2 = 0.6786	-0.0158	–
[2], x2 = 0.7994	-0.0132	–
[2], x2 = 0.9065	-0.00848	–

BrCCCCCBr [1,5-dibromopentane] + COC(C)=O
Conditions	excess molar enthalpy [kcal/mol]	mass density [kg/m3]
[1], x2 = 0.0956	–	1647.08
[1], x2 = 0.1844	–	1601.35
[1], x2 = 0.2647	–	1557.01
[1], x2 = 0.3394	–	1512.51
[1], x2 = 0.4752	–	1423.41
[1], x2 = 0.5958	–	1333.86
[1], x2 = 0.6582	–	1282.77
[1], x2 = 0.7059	–	1241.33
[1], x2 = 0.7548	–	1196.56
[1], x2 = 0.8019	–	1150.87
[1], x2 = 0.8486	–	1102.92
[1], x2 = 0.8874	–	1060.93
[1], x2 = 0.9243	–	1019.18
[1], x2 = 0.9638	–	972.17
[2], x2 = 0.1045	0.0536	–
[2], x2 = 0.2048	0.0886	–
[2], x2 = 0.2959	0.115	–
[2], x2 = 0.3795	0.13	–
[2], x2 = 0.454	0.137	–
[2], x2 = 0.5171	0.137	–
[2], x2 = 0.5731	0.133	–
[2], x2 = 0.622	0.127	–
[2], x2 = 0.685	0.116	–
[2], x2 = 0.7322	0.103	–
[2], x2 = 0.7812	0.0893	–
[2], x2 = 0.8296	0.0734	–
[2], x2 = 0.874	0.0585	–
[2], x2 = 0.9245	0.0386	–
[2], x2 = 0.9655	0.0173	–

BrCCCCCCBr [1,6-dibromohexane] + CCCC(=O)OC
Conditions	excess molar enthalpy [kcal/mol]	mass density [kg/m3]
[1], x2 = 0.0254	–	1587.59
[1], x2 = 0.0833	–	1555.83
[1], x2 = 0.1606	–	1512
[1], x2 = 0.2243	–	1474.58
[1], x2 = 0.291	–	1434.05
[1], x2 = 0.3545	–	1394.06
[1], x2 = 0.4193	–	1351.87
[1], x2 = 0.5445	–	1265.85
[1], x2 = 0.6016	–	1224.52
[1], x2 = 0.6573	–	1182.86
[1], x2 = 0.7029	–	1147.73
[1], x2 = 0.7563	–	1105.29
[1], x2 = 0.8125	–	1059.12
[1], x2 = 0.9056	–	978.87
[2], x2 = 0.0838	0.018	–
[2], x2 = 0.1878	0.0309	–
[2], x2 = 0.2949	0.0395	–
[2], x2 = 0.3961	0.0423	–
[2], x2 = 0.4591	0.0405	–
[2], x2 = 0.5094	0.0383	–
[2], x2 = 0.5864	0.0329	–
[2], x2 = 0.6566	0.0287	–
[2], x2 = 0.734	0.0232	–
[2], x2 = 0.8128	0.0172	–
[2], x2 = 0.8885	0.0108	–
[2], x2 = 0.9526	0.00392	–
